How the values were obtained:
Experiment in all cases: relative viability (nuclei count vs DMSO), 5 days (fraction); higher = more cells survive
[1] = system: A-427
Summary of the method: (§1)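 Lung cancer cell lines in 1536-well plates got either a single drug or a fixed anchor-drug dose together with five library-drug doses (not always all listed) in √10 steps, by pin tool, on the day after seeding. Nuclei were counted after 5 days, and relative viability is the treated-to-vehicle ratio of nuclei counts. Values are medians of duplicate plates.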

[2] = system: ABC-1
Summary of the method: as §1

[3] = system: CAL-12T
Summary of the method: as §1

[4] = system: H3255
Summary of the method: as §1

[5] = system: LCLC-97TM1
Summary of the method: as §1

[6] = system: LK-2
Summary of the method: as §1

[7] = system: NCI-H1355
Summary of the method: as §1

[8] = system: NCI-H1395
Summary of the method: as §1

[9] = system: NCI-H1651
Summary of the method: as §1

[10] = system: NCI-H1666
Summary of the method: as §1

[11] = system: NCI-H1792
Summary of the method: as §1

[12] = system: NCI-H1915
Summary of the method: as §1

[13] = system: NCI-H2085
Summary of the method: as §1

[14] = system: NCI-H2087
Summary of the method: as §1

[15] = system: NCI-H2228
Summary of the method: as §1

[16] = system: NCI-H322M
Summary of the method: as §1

[17] = system: NCI-H358
Summary of the method: as §1

[18] = system: NCI-H661
Summary of the method: as §1

[19] = system: NCI-H838
Summary of the method: as §1

[20] = system: PC-14
Summary of the method: as §1

[21] = system: PC-3 [JPC-3]
Summary of the method: as §1

[22] = system: SK-MES-1
Summary of the method: as §1

[23] = system: UMC-11
Summary of the method: as §1

O=c1[nH]c2ccccc2n1C1CCN(CCCC(c2ccc(F)cc2)c2ccc(F)cc2)CC1 [Pimozide] + CS(=O)(=O)CCNCc1ccc(-c2ccc3ncnc(Nc4ccc(OCc5cccc(F)c5)c(Cl)c4)c3c2)o1 [Lapatinib] (partner 2 µM)
relative viability ([1]; first compound 0.08 µM): 0.941
relative viability ([1]; first compound 0.253 µM): 1.03
relative viability ([1]; first compound 0.8 µM): 1.01
relative viability ([1]; first compound 2.53 µM): 0.911
relative viability ([1]; first compound 8 µM): 0.985
relative viability ([2]; first compound 0.08 µM): 1.18
relative viability ([2]; first compound 0.253 µM): 0.951
relative viability ([2]; first compound 0.8 µM): 1.13
relative viability ([2]; first compound 2.53 µM): 1.16
relative viability ([2]; first compound 8 µM): 1.22
relative viability ([3]; first compound 0.08 µM): 0.57
relative viability ([3]; first compound 0.253 µM): 0.588
relative viability ([3]; first compound 0.8 µM): 0.551
relative viability ([3]; first compound 2.53 µM): 0.538
relative viability ([3]; first compound 8 µM): 0.625
relative viability ([4]; first compound 0.253 µM): 0.281
relative viability ([4]; first compound 0.8 µM): 0.266
relative viability ([4]; first compound 2.53 µM): 0.229
relative viability ([4]; first compound 8 µM): 0.254
relative viability ([5]; first compound 0.08 µM): 0.957
relative viability ([5]; first compound 0.253 µM): 0.856
relative viability ([5]; first compound 0.8 µM): 0.957
relative viability ([5]; first compound 2.53 µM): 0.981
relative viability ([5]; first compound 8 µM): 0.814
relative viability ([6]; first compound 0.08 µM): 0.851
relative viability ([6]; first compound 0.253 µM): 0.842
relative viability ([6]; first compound 0.8 µM): 0.731
relative viability ([6]; first compound 2.53 µM): 0.78
relative viability ([6]; first compound 8 µM): 1.13
relative viability ([7]; first compound 0.08 µM): 1.02
relative viability ([7]; first compound 0.253 µM): 1.09
relative viability ([7]; first compound 0.8 µM): 0.933
relative viability ([7]; first compound 2.53 µM): 0.939
relative viability ([7]; first compound 8 µM): 0.982
relative viability ([8]; first compound 0.08 µM): 0.966
relative viability ([8]; first compound 0.253 µM): 1.17
relative viability ([8]; first compound 0.8 µM): 1.06
relative viability ([8]; first compound 2.53 µM): 0.756
relative viability ([8]; first compound 8 µM): 0.838
relative viability ([9]; first compound 0.08 µM): 0.967
relative viability ([9]; first compound 0.253 µM): 0.734
relative viability ([9]; first compound 0.8 µM): 0.934
relative viability ([9]; first compound 2.53 µM): 0.809
relative viability ([9]; first compound 8 µM): 0.746
relative viability ([10]; first compound 0.08 µM): 0.592
relative viability ([10]; first compound 0.253 µM): 0.716
relative viability ([10]; first compound 0.8 µM): 0.621
relative viability ([10]; first compound 2.53 µM): 0.365
relative viability ([10]; first compound 8 µM): 0.464
relative viability ([11]; first compound 0.08 µM): 0.888
relative viability ([11]; first compound 0.253 µM): 0.784
relative viability ([11]; first compound 0.8 µM): 0.83
relative viability ([11]; first compound 2.53 µM): 0.846
relative viability ([11]; first compound 8 µM): 0.869
relative viability ([12]; first compound 0.08 µM): 1.03
relative viability ([12]; first compound 0.253 µM): 0.927
relative viability ([12]; first compound 0.8 µM): 0.585
relative viability ([12]; first compound 2.53 µM): 0.947
relative viability ([12]; first compound 8 µM): 0.926
relative viability ([13]; first compound 0.08 µM): 0.786
relative viability ([13]; first compound 0.253 µM): 0.711
relative viability ([13]; first compound 0.8 µM): 0.704
relative viability ([13]; first compound 2.53 µM): 0.704
relative viability ([13]; first compound 8 µM): 0.698
relative viability ([14]; first compound 0.08 µM): 0.999
relative viability ([14]; first compound 0.253 µM): 1.1
relative viability ([14]; first compound 0.8 µM): 0.825
relative viability ([14]; first compound 2.53 µM): 1.06
relative viability ([14]; first compound 8 µM): 0.847
relative viability ([15]; first compound 0.08 µM): 1.18
relative viability ([15]; first compound 0.253 µM): 1.2
relative viability ([15]; first compound 0.8 µM): 0.924
relative viability ([15]; first compound 2.53 µM): 0.924
relative viability ([15]; first compound 8 µM): 0.669
relative viability ([16]; first compound 0.253 µM): 0.56
relative viability ([16]; first compound 0.8 µM): 0.584
relative viability ([16]; first compound 2.53 µM): 0.635
relative viability ([16]; first compound 8 µM): 0.525
relative viability ([17]; first compound 0.08 µM): 0.506
relative viability ([17]; first compound 0.253 µM): 0.488
relative viability ([17]; first compound 0.8 µM): 0.433
relative viability ([17]; first compound 2.53 µM): 0.477
relative viability ([17]; first compound 8 µM): 0.4
relative viability ([18]; first compound 0.08 µM): 0.46
relative viability ([18]; first compound 0.253 µM): 0.464
relative viability ([18]; first compound 0.8 µM): 0.451
relative viability ([18]; first compound 2.53 µM): 0.413
relative viability ([18]; first compound 8 µM): 0.467
relative viability ([19]; first compound 0.08 µM): 1.18
relative viability ([19]; first compound 0.253 µM): 1.07
relative viability ([19]; first compound 0.8 µM): 0.954
relative viability ([19]; first compound 2.53 µM): 0.822
relative viability ([19]; first compound 8 µM): 0.829
relative viability ([20]; first compound 0.253 µM): 0.38
relative viability ([20]; first compound 0.8 µM): 0.297
relative viability ([20]; first compound 2.53 µM): 0.334
relative viability ([20]; first compound 8 µM): 0.325
relative viability ([21]; first compound 0.253 µM): 0.414
relative viability ([21]; first compound 0.8 µM): 0.409
relative viability ([21]; first compound 2.53 µM): 0.441
relative viability ([21]; first compound 8 µM): 0.406
relative viability ([22]; first compound 0.08 µM): 0.468
relative viability ([22]; first compound 0.253 µM): 0.445
relative viability ([22]; first compound 0.8 µM): 0.451
relative viability ([22]; first compound 2.53 µM): 0.491
relative viability ([22]; first compound 8 µM): 0.507
relative viability ([23]; first compound 0.08 µM): 1.07
relative viability ([23]; first compound 0.253 µM): 0.957
relative viability ([23]; first compound 0.8 µM): 0.821
relative viability ([23]; first compound 2.53 µM): 0.934
relative viability ([23]; first compound 8 µM): 0.56
